Values after ≈ are worked out from the molar mass of the structure shown. No end group written: not given here.
Columns and labels:
A. baumannii ATCC 19,606 = experiment: microbe, parasite or virus in culture; type: cell-based, Acinetobacter baumannii
Description: (§1) Ten strains of both Gram-positive and -negative bacteria, including Staphylococcus aureus ATCC 25,923, S. epidermidis ATCC 12,228, Bacillus cereus ATCC 11,778, Listeria monocytogenes 10403S, Salmonella typhimurium ATCC 13,311, Pseudomonas aeruginosa ATCC 27,853, Shigella sonnei ATCC 11,060, A. baumannii ATCC 19,606, Escherichia coli ATCC 25,922 and E. coli O157:H7, were used in this study. Eight clinical isolates of multidrug-resistant (MDR) and extensively drug-resistant (XDR) A. baumannii, isolated from human (blood, sputum, respiratory sample, sterile site sample and urine), were kindly provided by Asst. Prof. Dr. Sakawrat Kanthawong (Faculty of Medicine, Khon Kaen University, Thailand) (Table S1). All bacterial strains, excluding L. monocytogenes 10403S and E. coli, were cultured in tryptic soy broth (TSB). L. monocytogenes was grown in TSB supplemented with 0.6% yeast extract (TSB-YE), and E. coli was cultured in Luria broth (LB). All of bacteria were cultured at 37 °C with continuous shaking at 220 rpm.
(§2) Minimum inhibitory concentration (MIC) of peptides and antibiotics was assessed by a modified version of the broth microdilution method from the Clinical and Laboratory Standards Institute (CLSI) as previously described. In brief, mid-log phase growths of microbial strains were cultured in Müeller-Hinton broth (MHB) with an initial inoculum of 2–8 × 10^5 CFU/mL. Bacteria suspensions were incubated in sterile 96-well plates with test agents at desired concentrations. […] Minimum bactericidal concentration (MBC) determination was performed using a modified version of the colony count assay. In brief, fifty µl of all non-turbid wells from MIC experiments were spread on agar plates. The MBC value was defined as the lowest concentration of peptides with no colony growth on the plate. All assays were performed in triplicate.

[1] = test system: Listeria monocytogenes 10403S; type: cell-based; settings: L. monocytogenes 10403S; broth microdilution, MHB, 24 h, 37 °C, triplicate
Description: as §1, §2

[2] = test system: Escherichia coli ATCC 25,922; type: cell-based; settings: E. coli ATCC 25,922; broth microdilution, MHB, 24 h, 37 °C, triplicate
Description: as §1, §2

[3] = test system: Salmonella Typhimurium ATCC 13,311; type: cell-based; settings: S. Typhimurium ATCC 13,311; broth microdilution, MHB, 24 h, 37 °C, triplicate
Description: as §1, §2

[4] = test system: Shigella sonnei ATCC 11,060; type: cell-based; settings: S. sonnei ATCC 11,060; broth microdilution, MHB, 24 h, 37 °C, triplicate
Description: as §1, §2

[5] = test system: Staphylococcus aureus ATCC 25,923; type: cell-based; settings: S. aureus ATCC 25,923; broth microdilution, MHB, 24 h, 37 °C, triplicate
Description: as §1, §2

[6] = test system: Staphylococcus epidermidis ATCC 12,228; type: cell-based; settings: S. epidermidis ATCC 12,228; broth microdilution, MHB, 24 h, 37 °C, triplicate
Description: as §1, §2

[7] = test system: Pseudomonas aeruginosa ATCC 27,853; type: cell-based; settings: P. aeruginosa ATCC 27,853; broth microdilution, MHB, 24 h, 37 °C, triplicate
Description: as §1, §2

[8] = test system: Escherichia coli O157:H7 MT strain; type: cell-based; settings: E. coli O157:H7 MT strain; broth microdilution, MHB, 24 h, 37 °C, triplicate
Description: as §1, §2

[9] = test system: Bacillus cereus ATCC 11,778; type: cell-based; settings: B. cereus ATCC 11,778; broth microdilution, MHB, 24 h, 37 °C, triplicate
Description: as §1, §2

[10] = test system: A. baumannii isolate A-8.2-1; experiment: Disk diffusion test (CLSI), antibiotic susceptibility profile; type: cell-based, Acinetobacter baumannii; settings: CLSI breakpoints
Procedure: (§3) ^aAntibiotic susceptibility profile of all isolated strains was evaluated by disk diffusion test, using the standard protocol guide of the Clinical and Laboratory Standards Institute (CLSI), and interpreted as S: Susceptible to standard dosing regimen; I: Intermediate; R: Resistant (in accordance with the criteria of CLST breakpoints).

[11] = test system: A. baumannii isolate C-8.2-1; experiment: as above; type: cell-based, Acinetobacter baumannii; settings: CLSI breakpoints
Procedure: as §3

[12] = test system: A. baumannii isolate C-8.1-2; experiment: as above; type: cell-based, Acinetobacter baumannii; settings: CLSI breakpoints
Procedure: as §3

[13] = test system: A. baumannii isolate B-8.2-2; experiment: as above; type: cell-based, Acinetobacter baumannii; settings: CLSI breakpoints
Procedure: as §3

[14] = test system: A. baumannii isolate B-8.1-2; experiment: as above; type: cell-based, Acinetobacter baumannii; settings: CLSI breakpoints
Procedure: as §3

[15] = test system: A. baumannii isolate B-8.1-1; experiment: as above; type: cell-based, Acinetobacter baumannii; settings: CLSI breakpoints
Procedure: as §3

[16] = test system: A. baumannii isolate D-10.1-1; experiment: as above; type: cell-based, Acinetobacter baumannii; settings: CLSI breakpoints
Procedure: as §3

[17] = test system: A. baumannii isolate D-10.1-2; experiment: as above; type: cell-based, Acinetobacter baumannii; settings: CLSI breakpoints
Procedure: as §3

[18] = test system: A. baumannii C-8.2–1 (XDR); experiment: microbe, parasite or virus in culture; type: cell-based, Acinetobacter baumannii; settings: Acinetobacter baumannii
Description: as §1, §2

[19] = test system: A. baumannii B-8.1–2 (MDR); experiment: microbe, parasite or virus in culture; type: cell-based, Acinetobacter baumannii; settings: Acinetobacter baumannii
Description: as §1, §2

[20] = test system: A. baumannii C-8.1–2 (MDR); experiment: microbe, parasite or virus in culture; type: cell-based, Acinetobacter baumannii; settings: Acinetobacter baumannii
Description: as §1, §2

[21] = test system: A. baumannii B-8.1–1 (MDR); experiment: microbe, parasite or virus in culture; type: cell-based, Acinetobacter baumannii; settings: Acinetobacter baumannii
Description: as §1, §2

[22] = test system: A. baumannii B-8.2–2 (XDR); experiment: microbe, parasite or virus in culture; type: cell-based, Acinetobacter baumannii; settings: Acinetobacter baumannii
Description: as §1, §2

[23] = test system: A. baumannii A-8.2–1 (XDR); experiment: microbe, parasite or virus in culture; type: cell-based, Acinetobacter baumannii; settings: Acinetobacter baumannii
Description: as §1, §2

[24] = A. baumannii ATCC 19,606, broth microdilution (modified CLSI), MHB, 2–8 × 10^5 CFU/mL, 24 h, 37 °C, triplicate

Row | Compound | MIC (A. baumannii ATCC 19,606; [24]) [µg/mL] | MIC [1] [µg/mL] | MIC [2] [µg/mL] | MIC [3] [µg/mL] | MIC [4] [µg/mL] | MIC [5] [µg/mL] | MIC [6] [µg/mL] | MIC [7] [µg/mL] | MIC [8] [µg/mL] | MIC [9] [µg/mL] | Antibiotic susceptibility profile [10] | Antibiotic susceptibility profile [11] | Antibiotic susceptibility profile [12] | Antibiotic susceptibility profile [13] | Antibiotic susceptibility profile [14] | Antibiotic susceptibility profile [15] | Antibiotic susceptibility profile [16] | Antibiotic susceptibility profile [17] | other results
1 | RLFRRVKKVAGKIAKRIW-NH2 [AP18] | 7.81 | 3.91 | 7.81 | 3.91 | 3.91 | 7.81 | 3.91 | 3.91 | 15.63 | 7.81 |  |  |  |  |  |  |  |  | 
2 | CC1(C)S[C@@H]2[C@H](NC(=O)[C@H](N)c3ccccc3)C(=O)N2[C@H]1C(=O)O [Amp, Ampicillin] |  |  |  |  |  |  |  |  |  |  | R | R | R | R | R | R | R | R | 
3 | RLFRRVKKVAGKIAKRI-NH2 [AP17] | 31.25 | 7.81 | 15.63 | 7.81 | 7.81 | 62.5 | 7.81 | 15.63 | 125 | 62.5 |  |  |  |  |  |  |  |  | 
4 | RLFRRVKKVAGKIAKR-NH2 [AP16] | 62.5 | 15.63 | 31.25 | 15.63 | 15.63 | 125 | 7.81 | 62.5 | 125 | 250 |  |  |  |  |  |  |  |  | 
5 | RLFRRVKKVAGKI-NH2 [AP13] | > 250 | 62.5 | 125 | 62.5 | 125 | > 250 | 62.5 | > 250 | 250 | > 250 |  |  |  |  |  |  |  |  | 
6 | C[C@H]1COc2c(N3CCN(C)CC3)c(F)cc3c(=O)c(C(=O)O)cn1c23 [Levofloxacin] |  |  |  |  |  |  |  |  |  |  | R | R | R | R | R | S | I | R | MBC [18]: 7.81 µg/mL (≈ 21.6 µM); MIC [18]: 3.91 µg/mL (≈ 10.8 µM); MBC [19]: 250 µg/mL (≈ 692 µM); MIC [19]: 125 µg/mL (≈ 346 µM); MBC [20]: 31.2 µg/mL (≈ 86.5 µM); MIC [20]: 31.2 µg/mL (≈ 86.5 µM); MBC [21]: 1.95 µg/mL (≈ 5.4 µM); MIC [21]: ≤ 0.49 µg/mL; MBC [22]: 7.81 µg/mL (≈ 21.6 µM); MIC [22]: 7.81 µg/mL (≈ 21.6 µM); MBC [23]: 3.91 µg/mL (≈ 10.8 µM); MIC [23]: 3.91 µg/mL (≈ 10.8 µM); MBC (A. baumannii ATCC 19,606; Acinetobacter baumannii, ATCC19): ≤ 0.49 µg/mL; MIC (A. baumannii ATCC 19,606; Acinetobacter baumannii, ATCC19, 24 h): ≤ 0.49 µg/mL
